Measurements reported in patent publication US4731451A, “N-((2-oxo-3(2H)benzothiazolyl)methyl)-2-chloroacetanilides” (Monsanto Company, priority 1980, dated 1988).

Tests used:
Format in all cases: in vivo
Yellow Nutsedge = experiment: Pre-emergent herbicidal activity (Table II); conditions: 2-3 weeks
Experimental: (§1) The pre-emergence tests are conducted as follows:
(§2) A good grade of top soil is placed in aluminum pans and compacted to a depth of three-eighths to one-half inch from the top of the pan. On the top of the soil is placed a predetermined number of seeds or vegetative propagules of various plant species. The soil required to level fill the pans after seeding or adding vegetative propagules is weighed into a pan. A known amount of the active ingredient applied in a solvent or as a wettable powder suspension and the soil are thoroughly mixed, and used as a cover layer for prepared pans. After treatment, the pans are moved into a greenhouse bench where they are watered from below as needed to give adequate moisture for germination and growth.
(§3) Approximately 2-3 weeks after seeding and treating, the plants are observed and the results recorded. The herbicidal rating is obtained by means of fixed scale based on the percent injury of each plant species. The ratings are defined as follows: […]
(§4) The plant species utilized in one set of tests, the data for which are shown in Table II, are identified by letter in accordance with the following legend: […]

Lambsquarters [1] = experiment: Pre-emergent herbicidal activity (Table II); conditions: 2-3 weeks
Experimental: as §1, §2, §3, §4

Johnsongrass = experiment: Pre-emergent herbicidal activity (Table II); conditions: 2-3 weeks
Experimental: as §1, §2, §3, §4

Morningglory [2] = experiment: Pre-emergent herbicidal activity (Table II); conditions: 2-3 weeks
Experimental: as §1, §2, §3, §4

Canada Thistle = experiment: Pre-emergent herbicidal activity (Table II); conditions: 2-3 weeks
Experimental: as §1, §2, §3, §4

Quackgrass = experiment: Pre-emergent herbicidal activity (Table II); conditions: 2-3 weeks
Experimental: as §1, §2, §3, §4

Velvetleaf [3] = experiment: Pre-emergent herbicidal activity (Table II); conditions: 2-3 weeks
Experimental: as §1, §2, §3, §4

Downy Brome [4] = experiment: Pre-emergent herbicidal activity (Table II); conditions: 2-3 weeks
Experimental: as §1, §2, §3, §4

Smartweed [5] = experiment: Pre-emergent herbicidal activity (Table II); conditions: 2-3 weeks
Experimental: as §1, §2, §3, §4

Cocklebur [6] = experiment: Pre-emergent herbicidal activity (Table II); conditions: 2-3 weeks
Experimental: as §1, §2, §3, §4

Barnyardgrass [7] = experiment: Pre-emergent herbicidal activity (Table II); conditions: 2-3 weeks
Experimental: as §1, §2, §3, §4

Lambsquarters [8] = experiment: Pre-emergent herbicidal activity (Table III)
Experimental: as §1, §2, §3
(§5) The compounds were further tested by utilizing the above procedure on the following plant species: […]

Sorghum = experiment: Pre-emergent herbicidal activity (Table III)
Experimental: as §1, §2, §3, §5

Crabgrass = experiment: Pre-emergent herbicidal activity (Table III)
Experimental: as §1, §2, §3, §5

Panicum = experiment: Pre-emergent herbicidal activity (Table III)
Experimental: as §1, §2, §3, §5

Hemp Sesbania = experiment: Pre-emergent herbicidal activity (Table III)
Experimental: as §1, §2, §3, §5

Morningglory [9] = experiment: Pre-emergent herbicidal activity (Table III)
Experimental: as §1, §2, §3, §5

Wild Buckwheat = experiment: Pre-emergent herbicidal activity (Table III)
Experimental: as §1, §2, §3, §5

Soybean = experiment: Pre-emergent herbicidal activity (Table III)
Experimental: as §1, §2, §3, §5

Wheat = experiment: Pre-emergent herbicidal activity (Table III)
Experimental: as §1, §2, §3, §5

Velvetleaf [10] = experiment: Pre-emergent herbicidal activity (Table III)
Experimental: as §1, §2, §3, §5

Downy Brome [11] = experiment: Pre-emergent herbicidal activity (Table III)
Experimental: as §1, §2, §3, §5

Smartweed [12] = experiment: Pre-emergent herbicidal activity (Table III)
Experimental: as §1, §2, §3, §5

Cocklebur [13] = experiment: Pre-emergent herbicidal activity (Table III)
Experimental: as §1, §2, §3, §5

Rice = experiment: Pre-emergent herbicidal activity (Table III)
Experimental: as §1, §2, §3, §5

Barnyardgrass [14] = experiment: Pre-emergent herbicidal activity (Table III)
Experimental: as §1, §2, §3, §5

Sugarbeet = experiment: Pre-emergent herbicidal activity (Table III)
Experimental: as §1, §2, §3, §5
Note: ranges in brackets are in %.

In the case of CCC1=C(N(Cn2c(=O)sc3ccccc32)C(=O)CCl)C(CC)CCC1 (stereo not shown) [Example 5, N--[(2-oxo-3(2H)--benzothiazolyl)methyl]-N--(2,6-diethyl-1-cyclohexen-1-yl)-2-chloro-acetamide], the Herbicidal rating (Yellow Nutsedge; 5.6 kg/ha) is reported as 0 (0-24), the Herbicidal rating (Yellow Nutsedge; 11.2 kg/ha) is reported as 0 (0-24) and the Herbicidal rating (Lambsquarters [1]; 5.6 kg/ha) is reported as 1 (25-49). The Herbicidal rating (Lambsquarters [1]; 11.2 kg/ha) was 1 (25-49), the Herbicidal rating (Johnsongrass; 5.6 kg/ha) was 0 (0-24) and the Herbicidal rating (Johnsongrass; 11.2 kg/ha) was 0 (0-24). For the same compound, the Herbicidal rating (Morningglory [2]; 5.6 kg/ha) was 0 (0-24), the Herbicidal rating (Morningglory [2]; 11.2 kg/ha) was 0 (0-24) and the Herbicidal rating (Canada Thistle; 5.6 kg/ha) was 0 (0-24). The Herbicidal rating (Canada Thistle; 11.2 kg/ha) was 0 (0-24), the Herbicidal rating (Quackgrass; 5.6 kg/ha) was 0 (0-24) and the Herbicidal rating (Quackgrass; 11.2 kg/ha) was 0 (0-24). The Herbicidal rating (Velvetleaf [3]; 5.6 kg/ha) was 0 (0-24), the Herbicidal rating (Velvetleaf [3]; 11.2 kg/ha) was 0 (0-24) and the Herbicidal rating (Downy Brome [4]; 5.6 kg/ha) was 0 (0-24). For the same compound, the Herbicidal rating (Downy Brome [4]; 11.2 kg/ha) was 0 (0-24), the Herbicidal rating (Smartweed [5]; 5.6 kg/ha) was 0 (0-24) and the Herbicidal rating (Smartweed [5]; 11.2 kg/ha) was 0 (0-24). For the same compound, the Herbicidal rating (Cocklebur [6]; 5.6 kg/ha) was 0 (0-24), the Herbicidal rating (Cocklebur [6]; 11.2 kg/ha) was 0 (0-24) and the Herbicidal rating (Barnyardgrass [7]; 5.6 kg/ha) was 1 (25-49). For the same compound, the Herbicidal rating (Barnyardgrass [7]; 11.2 kg/ha) was 1 (25-49).

In the case of CC1=C(N(Cn2c(=O)sc3ccc(Cl)cc32)C(=O)CCl)C(C)CCC1 (stereo not shown) [Example 6, N--[(5-chloro-2-oxo-3(2H)--benzothiazolyl)methyl]-N--(2,6-dimethyl-1-cyclohexen-1-yl)-2-chloroacetamide], the Herbicidal rating (Yellow Nutsedge; 5.6 kg/ha) is reported as 0 (0-24), the Herbicidal rating (Yellow Nutsedge; 11.2 kg/ha) is reported as 0 (0-24) and the Herbicidal rating (Lambsquarters [1]; 5.6 kg/ha) is reported as 0 (0-24). For the same compound, the Herbicidal rating (Lambsquarters [1]; 11.2 kg/ha) was 3 (75-100), the Herbicidal rating (Johnsongrass; 5.6 kg/ha) was 0 (0-24) and the Herbicidal rating (Johnsongrass; 11.2 kg/ha) was 0 (0-24). The Herbicidal rating (Morningglory [2]; 5.6 kg/ha) was 0 (0-24), the Herbicidal rating (Morningglory [2]; 11.2 kg/ha) was 0 (0-24) and the Herbicidal rating (Canada Thistle; 5.6 kg/ha) was 0 (0-24). For the same compound, the Herbicidal rating (Canada Thistle; 11.2 kg/ha) was 1 (25-49), the Herbicidal rating (Quackgrass; 5.6 kg/ha) was 0 (0-24) and the Herbicidal rating (Quackgrass; 11.2 kg/ha) was 1 (25-49). For the same compound, the Herbicidal rating (Velvetleaf [3]; 5.6 kg/ha) was 0 (0-24), the Herbicidal rating (Velvetleaf [3]; 11.2 kg/ha) was 0 (0-24) and the Herbicidal rating (Downy Brome [4]; 5.6 kg/ha) was 0 (0-24). For the same compound, the Herbicidal rating (Downy Brome [4]; 11.2 kg/ha) was 0 (0-24), the Herbicidal rating (Smartweed [5]; 5.6 kg/ha) was 0 (0-24) and the Herbicidal rating (Smartweed [5]; 11.2 kg/ha) was 0 (0-24). The Herbicidal rating (Cocklebur [6]; 5.6 kg/ha) was 0 (0-24), the Herbicidal rating (Cocklebur [6]; 11.2 kg/ha) was 0 (0-24) and the Herbicidal rating (Barnyardgrass [7]; 5.6 kg/ha) was 1 (25-49). For the same compound, the Herbicidal rating (Barnyardgrass [7]; 11.2 kg/ha) was 3 (75-100), the Herbicidal rating (Lambsquarters [8]; 1.12 kg/ha) was 3 (75-100) and the Herbicidal rating (Lambsquarters [8]; 5.6 kg/ha) was 1 (25-49). The Herbicidal rating (Sorghum; 1.12 kg/ha) was 0 (0-24), the Herbicidal rating (Sorghum; 5.6 kg/ha) was 0 (0-24) and the Herbicidal rating (Crabgrass; 1.12 kg/ha) was 2 (50-74). For the same compound, the Herbicidal rating (Crabgrass; 5.6 kg/ha) was 3 (75-100), the Herbicidal rating (Panicum; 1.12 kg/ha) was 0 (0-24) and the Herbicidal rating (Panicum; 5.6 kg/ha) was 0 (0-24). The Herbicidal rating (Hemp Sesbania; 1.12 kg/ha) was 3 (75-100), the Herbicidal rating (Hemp Sesbania; 5.6 kg/ha) was 3 (75-100) and the Herbicidal rating (Morningglory [9]; 1.12 kg/ha) was 0 (0-24). For the same compound, the Herbicidal rating (Morningglory [9]; 5.6 kg/ha) was 0 (0-24), the Herbicidal rating (Wild Buckwheat; 1.12 kg/ha) was 0 (0-24) and the Herbicidal rating (Wild Buckwheat; 5.6 kg/ha) was 0 (0-24). The Herbicidal rating (Soybean; 1.12 kg/ha) was 0 (0-24), the Herbicidal rating (Soybean; 5.6 kg/ha) was 0 (0-24) and the Herbicidal rating (Wheat; 1.12 kg/ha) was 0 (0-24). The Herbicidal rating (Wheat; 5.6 kg/ha) was 0 (0-24), the Herbicidal rating (Velvetleaf [10]; 1.12 kg/ha) was 0 (0-24) and the Herbicidal rating (Velvetleaf [10]; 5.6 kg/ha) was 0 (0-24). The Herbicidal rating (Downy Brome [11]; 1.12 kg/ha) was 0 (0-24), the Herbicidal rating (Downy Brome [11]; 5.6 kg/ha) was 0 (0-24) and the Herbicidal rating (Smartweed [12]; 1.12 kg/ha) was 2 (50-74). The Herbicidal rating (Smartweed [12]; 5.6 kg/ha) was 1 (25-49), the Herbicidal rating (Cocklebur [13]; 1.12 kg/ha) was 0 (0-24) and the Herbicidal rating (Cocklebur [13]; 5.6 kg/ha) was 0 (0-24). The Herbicidal rating (Rice; 1.12 kg/ha) was 1 (25-49), the Herbicidal rating (Rice; 5.6 kg/ha) was 0 (0-24) and the Herbicidal rating (Barnyardgrass [14]; 1.12 kg/ha) was 0 (0-24). The Herbicidal rating (Barnyardgrass [14]; 5.6 kg/ha) was 1 (25-49), the Herbicidal rating (Sugarbeet; 1.12 kg/ha) was 1 (25-49) and the Herbicidal rating (Sugarbeet; 5.6 kg/ha) was 1 (25-49).
